Calls of active or inactive are those of the source.
Key:
HEK293 [1] = experiment: HEK cell cytotoxicity by LDH release, dose response, cytotoxicity control for IDE activator project, fluorescence, HEK cells (AID 588440); format: functional, cell-based; conditions: Homo sapiens;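 further: cytotoxicity by LDH release measuring loss of membrane integrity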
HEK293 [2] = experiment: optical interference in Abeta FP readout, dose response, artefact control for IDE activator project, biochemical, fluorescence polarization (AID 588442); format: functional, cell-based; conditions: Homo sapiens
Insulin-degrading enzyme [3] = biological target: T1, Insulin-degrading enzyme (Homo sapiens, UniProt P14735); experiment: activators of recombinant IDE enzyme, dose response, counter-screen for IDE activator project, biochemical, fluorescence polarization (AID 588681)
T1 sequence (P14735 whole entry): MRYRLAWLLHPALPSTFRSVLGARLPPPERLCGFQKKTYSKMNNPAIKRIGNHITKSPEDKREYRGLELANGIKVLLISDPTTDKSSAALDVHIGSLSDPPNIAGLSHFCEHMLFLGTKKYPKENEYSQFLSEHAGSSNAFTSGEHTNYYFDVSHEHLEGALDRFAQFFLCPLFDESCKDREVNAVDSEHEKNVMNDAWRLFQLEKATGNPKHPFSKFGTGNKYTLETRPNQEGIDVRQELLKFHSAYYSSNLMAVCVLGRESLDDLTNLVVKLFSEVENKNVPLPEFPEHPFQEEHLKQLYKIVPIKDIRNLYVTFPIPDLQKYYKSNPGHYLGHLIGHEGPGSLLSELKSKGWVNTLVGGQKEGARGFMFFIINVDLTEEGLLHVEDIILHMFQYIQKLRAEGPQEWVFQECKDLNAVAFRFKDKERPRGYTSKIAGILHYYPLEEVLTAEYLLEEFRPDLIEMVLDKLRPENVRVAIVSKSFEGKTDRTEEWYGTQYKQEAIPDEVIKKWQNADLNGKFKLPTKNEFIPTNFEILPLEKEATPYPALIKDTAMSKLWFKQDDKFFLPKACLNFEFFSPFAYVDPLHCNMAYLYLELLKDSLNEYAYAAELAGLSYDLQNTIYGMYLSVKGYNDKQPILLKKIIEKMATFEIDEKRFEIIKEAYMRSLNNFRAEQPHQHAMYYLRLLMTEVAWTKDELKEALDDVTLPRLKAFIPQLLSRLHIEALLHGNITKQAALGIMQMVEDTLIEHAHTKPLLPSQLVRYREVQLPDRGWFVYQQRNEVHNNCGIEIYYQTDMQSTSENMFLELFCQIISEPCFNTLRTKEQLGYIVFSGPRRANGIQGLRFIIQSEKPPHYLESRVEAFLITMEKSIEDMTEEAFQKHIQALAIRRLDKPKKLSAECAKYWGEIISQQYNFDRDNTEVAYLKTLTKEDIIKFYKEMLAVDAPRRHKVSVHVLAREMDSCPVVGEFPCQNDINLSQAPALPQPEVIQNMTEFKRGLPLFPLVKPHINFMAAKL

Insulin-degrading enzyme [4] = biological target: T1, Insulin-degrading enzyme; experiment: activators of endogenous IDE in HEK cells, dose response, cell-based, fluorescence polarization (AID 588439); format: functional
[5] = NIH-3T3 fibroblast cytotoxicity, dose response, cytotoxicity control, cell-based, fluorescence, Alamar Blue, secondary assay (AID 2327); format: functional;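 further: NIH-3T3 mouse fibroblasts cultured with fluconazole at 8 µg/mL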
H4 = experiment: Luminescence Cell-Based Dose Response HTS to Identify Activators of 5'UTR Stem-Loop Driven Prion Protein mRNA Translation in H4 Neuroglioblastoma Cells. [Related pubchem assays: 1829 (Project Summary), 1814 (Primary HTS)]; format: functional; conditions: Homo sapiens
CHO = experiment: cytotoxicity in TLR9-MyD88 CHO cells, dose response, cytotoxicity control for TLR9-MyD88 binding inhibitor project, cell-based, luminescence (AID 588339); format: functional, hamster; conditions: Cricetulus griseus;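 further: CHO cells stably coexpressing TLR9 and MyD88 fusions from primary screen; compound exposure lasted 48 hours before viability readout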
[6] = Luminescence Cell-Based Dose Response HTS to Identify Activators of Luciferase Translation or Activity in H4 […] Cells. [Related pubchem assays: 1829 (Project Summary), 1814 (Primary HTS)]; format: functional
[7] = C. albicans growth with fluconazole, confirmation, fluorescence, retest (AID 2467); format: functional, cell-based
[8] = Luminescence Cell-Based Dose Confirmation HTS to Identify Activators of 5'UTR Stem-Loop Driven Alpha-Synuclein mRNA Translation in H4 Neuroglioblastoma Cells. [Related pubchem assays: 1829 (Project Summary), 1814 (Primary HTS)]; format: functional
INS1 = experiment: beta cell apoptosis inhibitors, cytokine rescue, dose response, luminescence, retest (AID 449756); format: functional, cell-based; conditions: Rattus norvegicus;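 further: cell death triggered by IL-1 beta plus TNF-alpha plus IFN-gamma mixture; protective hits raise ATP signal compared with cytokine alone wells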
[9] = microbe, parasite or virus in culture; format: functional; conditions: Mycobacterium tuberculosis
[10] = biological target: E3 ubiquitin-protein ligase Mdm2 (Homo sapiens, UniProt Q00987); experiment: enhancers of MDM2-luciferase reporter signal, concentration-effect titration, project on inhibitors of MDM2 ubiquitin ligase, cellular assay, luminescent readout, 384-well plate format (AID 1394); format: functional;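 further: MDM2 E3 inhibitors raise luminescence so EC50 is for signal enhancement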
Chain of E3 ubiquitin-protein ligase Mdm2 (Q00987 whole entry): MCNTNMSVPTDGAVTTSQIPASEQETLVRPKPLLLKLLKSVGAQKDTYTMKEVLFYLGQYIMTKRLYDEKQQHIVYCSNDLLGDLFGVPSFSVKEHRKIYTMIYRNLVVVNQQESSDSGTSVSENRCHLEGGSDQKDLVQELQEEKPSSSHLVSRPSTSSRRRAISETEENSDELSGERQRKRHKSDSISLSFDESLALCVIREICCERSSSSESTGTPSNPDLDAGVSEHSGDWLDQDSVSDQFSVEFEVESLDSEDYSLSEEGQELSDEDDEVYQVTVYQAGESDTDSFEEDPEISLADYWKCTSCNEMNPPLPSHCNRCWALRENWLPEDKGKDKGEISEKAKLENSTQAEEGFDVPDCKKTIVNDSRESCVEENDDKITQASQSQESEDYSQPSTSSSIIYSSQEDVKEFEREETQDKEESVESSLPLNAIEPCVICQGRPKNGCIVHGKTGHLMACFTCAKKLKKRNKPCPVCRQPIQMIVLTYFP

With `Cc1ccc2nc(N(CCCN(C)C)C(=O)COc3ccc(Cl)cc3)sc2c1` the IC50 (HEK293 [1]) was 46.4 µM (inactive), the EC50 (HEK293 [2]) was > 54.7 µM (inactive) and the EC50 (Insulin-degrading enzyme [3]) was > 54.7 µM (inactive). For the same compound, the EC50 (Insulin-degrading enzyme [4]) was > 54.7 µM (inactive).

For `C=C1C(=O)O[C@@H]2C[C@@H](C)[C@@H]3C4OC4C(=O)[C@@]3(C)[C@@H](O)[C@H]12` (stereo partly drawn), the EC50 [5] was 6.66 µM (inconclusive), the EC50 (H4) was > 120 µM (not active) and the IC50 (CHO) was 2.43 µM (active). The EC50 [6] was > 120 µM (not active), the EC50 [7] was 0.644 µM (active) and the EC50 [8] was > 120 µM (not active). For the same compound, the AC50 (INS1) was 8.02 µM (active), the CC50 [9] was 4.92 µM (active) and the EC50 [10] was 11.6 µM (not active).

Source: ChEMBL document CHEMBL1201862, “PubChem BioAssay data set” (2004)
